Results on eight compounds are retold here after ChEMBL document CHEMBL4020793 (Bioorg Med Chem Lett, 2017).

What all share (type): functional, cell-based
The subject of experiment [1] is HCT-116. The experiment in a line: Antiproliferative activity against human HCT116 cells assessed as cell viability after 72 hrs by MTS assay. As to conditions: HCT-116, 72 h. (Tetrazolium assays rely on reduction of a dye to a coloured formazan, in cell work by metabolically active cells.)
In experiment [2] the test system is L1210. The experiment in a line: Antiproliferative activity against mouse L1210 cells assessed as cell viability after 72 hrs by MTS assay. To be noted: L1210, 72 h.
Experiment [3] deals with HCT-116/VM46. The experiment can be described thus: Antiproliferative activity against vinblastine-resistant human HCT116/VM46 cells assessed as cell viability after 72 hrs by MTS assay. To be noted: HCT-116/VM46, 72 h.

As usually defined, the pIC50 is the negative decadic logarithm of the IC50, by convention in mol/L.

pIC50: −log10 of the molar value.

Turning to `CCC[C@]1(O)C[C@H]2CN(CCc3c([nH]c4ccccc34)[C@@](C(=O)OC)(c3cc4c(cc3OC)N(C)[C@H]3[C@@](O)(C(=O)OC)[C@H](OC(C)=O)[C@]5(CC)C=CCN6CC[C@]43[C@@H]65)C2)C1`, the values for the pIC50 in experiment [1], in experiment [2] and in experiment [3] were 6.38, 6.52 and less than 6.00, respectively.
For `CC[C@]12C=CCN3CC[C@@]4(c5cc([C@@]6(C(=O)OC)C[C@@H]7CN(CCc8c6[nH]c6ccccc86)C[C@](O)(CCF)C7)c(OC)cc5N(C)[C@H]4[C@@](O)(C(=O)OC)[C@@H]1OC(C)=O)[C@@H]32` the same measures were 8.20, 8.12 and 6.38.
Taken in the same sequence, the figures for `CC[C@]12C=CCN3CC[C@@]4(c5cc([C@@]6(C(=O)OC)C[C@@H]7CN(CCc8c6[nH]c6ccccc86)C[C@](O)(CCO)C7)c(OC)cc5N(C)[C@H]4[C@@](O)(C(=O)OC)[C@@H]1OC(C)=O)[C@@H]32` were less than 6.00, less than 6.00 and less than 6.00.
For `CC[C@]12C=CCN3CC[C@@]4(c5cc([C@@]6(C(=O)OC)C[C@@H]7CN(CCc8c6[nH]c6ccccc86)C[C@@]6(O)CCCC[C@H]76)c(OC)cc5N(C)[C@H]4[C@@](O)(C(=O)OC)[C@@H]1OC(C)=O)[C@@H]32` the same measures were 8.22, 8.22 and 6.70.
With `CC[C@]12C=CCN3CC[C@@]4(c5cc([C@@]6(C(=O)OC)C[C@@H]7CN(CCc8c6[nH]c6ccccc86)C[C@](O)(CCC#N)C7)c(OC)cc5N(C)[C@H]4[C@@](O)(C(=O)OC)[C@@H]1OC(C)=O)[C@@H]32`, the negative logarithm of the IC50 (pIC50) in experiment [1] was 7.10; in experiment [2] it was 7.10; in experiment [3] it was 5.10.
In the case of `CCCC[C@]1(O)C[C@H]2CN(CCc3c([nH]c4ccccc34)[C@@](C(=O)OC)(c3cc4c(cc3OC)N(C)[C@H]3[C@@](O)(C(=O)OC)[C@H](OC(C)=O)[C@]5(CC)C=CCN6CC[C@]43[C@@H]65)C2)C1`, the negative-log IC50 (pIC50) in experiment [1] was 6.10; in experiment [2], 6.32; in experiment [3] it was less than 6.00.
For `CC[C@]12C=CCN3CC[C@@]4(c5cc([C@@]6(C(=O)OC)C[C@@H]7CN(CCc8c6[nH]c6ccccc86)C[C@](O)(CCN=[N+]=[N-])C7)c(OC)cc5N(C)[C@H]4[C@@](O)(C(=O)OC)[C@@H]1OC(C)=O)[C@@H]32` the same measures were 7.15, 7.19 and 5.52.
For `CC[C@]12C=CCN3CC[C@@]4(c5cc([C@@]6(C(=O)OC)C[C@@H]7CN(CCc8c6[nH]c6ccccc86)C[C@@]6(O)CCCC[C@@H]76)c(OC)cc5N(C)[C@H]4[C@@](O)(C(=O)OC)[C@@H]1OC(C)=O)[C@@H]32` the same measures were 9.15, 9.22 and 7.22.
